Data published in ChEMBL document CHEMBL4513101, “Naegleria gruberi Pathogen Box compounds screening” (2021).
Active and inactive are the calls of the source. Cut-off read from the data, not from the text of the source: active = inhibition of 80% or more and inactive = less.

Tested on: Naegleria gruberi
Assay: microbe, parasite or virus in culture
Format: functional
Conditions: NEG-M, CONC 10 uM
Description: Growth inhibiting activity of Naegleria gruberi in vitro

SMILES	inhibition at 10 µM
Cc1ccc(C(=O)Nc2ccc(S(=O)(=O)O)c3cc(S(=O)(=O)O)cc(S(=O)(=O)O)c23)cc1NC(=O)c1cccc(NC(=O)Nc2cccc(C(=O)Nc3cc(C(=O)Nc4ccc(S(=O)(=O)O)c5cc(S(=O)(=O)O)cc(S(=O)(=O)O)c45)ccc3C)c2)c1 [SURAMIN]	32% (not active)
Cc1cc(OCC(=O)NCc2ccccc2)c2cc(Br)ccc2n1	22.1% (not active)
COc1cc(C2=NCCN2)cc2cc(-c3ccc(C4=NCCN4)cc3)oc12	11.2% (not active)
Cc1ccc(S(=O)(=O)N2CCN(C(=O)c3cc(-c4ccccc4)n[nH]3)CC2)cc1	22.3% (not active)
COc1ccc(C2=NN(C3CCCCCC3)C(=O)[C@@H]3CC=CC[C@H]23)cc1OCCCCOc1ccc(-c2nnn[nH]2)cc1	30.2% (not active)
CCS(=O)(=O)N(Cc1ccco1)Cc1cc2ccc(C)cc2nc1O	0% (not active)
CCc1nc2ccc(C(=O)NCc3ccc4c(c3)OCO4)cn2c1N(C)Cc1cccs1	36% (not active)
COc1ccccc1OCCCCn1c(C2CC2)nc2ccccc21	42.6% (not active)
Cc1cc2ccccc2n1CC(=O)N1CC(C(=O)N2CCCCC2)Oc2ccccc21 (stereo unspecified)	52.5% (not active)
COc1ccccc1CNC(=O)c1cc(C2CC2)nc2c1cnn2C(C)C	49.8% (not active)
Cc1nc(-c2ccccn2)nc(NCCc2ccc(S(C)(=O)=O)cc2)c1Cl	26.6% (not active)
c1cc(C2=NCCN2)cc(-c2cc(-c3ccc(C4=NCCN4)cc3)no2)c1	24.2% (not active)
CC(C)(C)c1ccc(N[C@@H]2CCCC[C@H]2NC(=O)c2ccco2)cc1	8.8% (not active)
COc1cccc(OC)c1C(=O)Nc1ccc(Cl)c(-c2nc3ccccc3s2)c1	19.2% (not active)
CO/N=C(\C(=O)OC)c1ccccc1CO/N=C(\C)c1cccc(C(F)(F)F)c1	43.9% (not active)
N#Cc1nc(-c2ccccc2)oc1S(=O)(=O)c1ccc(Cl)cc1	9.4% (not active)
CC1(C)Cc2c(c(N3CCOCC3)nc3snc(Br)c23)CO1	0% (not active)
COc1ccc(CCN2CCC(NCc3cccc(N(C)C)c3)CC2)cc1	8.7% (not active)
O=C(Nc1ccccc1)c1ccc(-c2cc3ccncc3cc2OC2CCNCC2)s1	12.6% (not active)
NS(=O)(=O)c1cncc(-c2ccc3nccc(-c4cn[nH]c4)c3n2)c1	0% (not active)
COc1ccc(-c2nnc3ccc(-c4cccc(C(C)C)c4)cn23)cc1OC	26.7% (not active)
Cc1nn2c(O)c3c(nc2c1-c1ccc(F)cc1)CCCC3	30.1% (not active)

SMILES	inhibition at 10 µM
c1ccc(C[C@@H]2CN(c3nccc(Oc4ccc(-n5ccnc5)cc4)n3)CCN2)cc1	26.4% (not active)
CC(C)(C)n1nc(Cc2cccc3ccccc23)c2c(N)ncnc21	13.8% (not active)
Nc1ncnc2c1ncn2C[C@@H](O)[C@@H](O)C(=O)O [ERITADENINE]	36.3% (not active)
Cc1[nH]c2cc(F)cc(F)c2c(=O)c1-c1ccc(Oc2ccc(OC(F)(F)F)cc2)cc1	11.3% (not active)
O=C(C1CCN(c2cc(-n3cccc3)ncn2)CC1)N1CCc2ccccc2C1	13.5% (not active)
Cc1c[nH]c(CCNC(=O)c2cc(-c3ccc(Cl)cc3)cs2)n1	38.3% (not active)
CC1(C)OB(O)c2ccc(C3=NOC(c4cc(Cl)c(F)c(Cl)c4)(C(F)(F)F)C3)cc21 (stereo unspecified)	62.5% (not active)
COc1ccc(-c2cnc3ccc(N4CCCC4)nn23)cc1OC	51.2% (not active)
Cc1nn2c(=O)c3c([nH]c2c1-c1ccc(Cl)cc1)CCCC3	30.5% (not active)
CCC(Sc1nc2ccccc2o1)C(=O)Nc1nnc(C)s1 (stereo unspecified)	8.4% (not active)
c1ccc(Oc2ccc(-c3cc(C4CCOCC4)[nH]n3)cc2)cc1	34.2% (not active)
COc1ccc(C2(C(=O)Nc3ccc(Br)cc3)CCCC2)cc1	11.1% (not active)
OC[C@H]1O[C@@H](n2c3ccc(Cl)cc3c3c(-c4cc5ccccc5o4)ncnc32)C(O)[C@H]1O (stereo partly specified)	17.3% (not active)
COc1cc(OC)cc(C(=O)NCC2Cc3cc(Cl)cc(-c4ccncc4)c3O2)c1 (stereo unspecified)	20.9% (not active)
COc1ccc(C2=NCCN2)cc1-c1cn(-c2cccc(C3=NCCN3)c2)nn1	21.7% (not active)
COc1ccc2nccc(NC(=O)C3CCN(CCc4ccc(Cl)cc4)CC3)c2n1	18.8% (not active)
CNC(=O)CNc1nc(-c2ccccn2)nc2scc(-c3ccccc3)c12	22.6% (not active)
COc1ccc(-c2cnc3ccc(NCc4ccc(S(N)(=O)=O)cc4)nn23)cn1	10.2% (not active)
NCCN(C(=O)c1ccc(Cl)cc1Cl)c1ccc(OCc2ccc(Cl)cc2)cc1	29.6% (not active)
CCOC(=O)c1noc(N)c1-c1ccccc1	0% (not active)
O=C(Nc1cccnc1)c1c(O)c2cccc3c2n(c1=O)CC3	40.3% (not active)
C[C@@H]1[C@H](O)[C@@H](C)/C=C/C=C/C=C/C=C/C=C/C=C/C=C/[C@H](O[C@@H]2O[C@H](C)[C@@H](O)[C@H](N)[C@@H]2O)C[C@@H]2O[C@](O)(C[C@@H](O)C[C@@H](O)[C@H](O)CC[C@@H](O)C[C@@H](O)CC(=O)O[C@H]1C)C[C@H](O)[C@H]2C(=O)O [AMPHOTERICIN B]	2.4% (not active)

SMILES	inhibition at 10 µM
CC[C@@H]([C@H](C)O)n1ncn(-c2ccc(N3CCN(c4ccc(OC[C@@H]5CO[C@@](Cn6cncn6)(c6ccc(F)cc6F)C5)cc4)CC3)cc2)c1=O [POSACONAZOLE]	84.8% (active)
CN1CCC(NCc2cccc(-c3ccc(S(=O)(=O)NCc4ccccc4)cc3)c2)CC1	14.4% (not active)
NC(=O)c1cc(Br)ccc1OCCOc1ccccc1	36.1% (not active)
FC(F)(F)c1cnc(Sc2nnc(-c3ccncc3)o2)c(Cl)c1	42.8% (not active)
C[C@]1(COc2ccc(N3CCC(Oc4ccc(OC(F)(F)F)cc4)CC3)cc2)Cn2cc([N+](=O)[O-])nc2O1	94.1% (active)
NS(=O)(=O)c1cccc(-c2ccc3ncc(N4CCOCC4)nc3c2)c1	26% (not active)
O=C(NCCN1CCCC1)c1cc(NCCN2CCOCC2)nc2ccc(Cl)cc12	11% (not active)
Cc1cc(C)n2nc(C(=O)Nc3cc(C(F)(F)F)ccc3N3CCOCC3)nc2n1	38% (not active)
O=C(NCc1nnc2n1CCCCC2)c1ccc(-c2ccc(F)cc2)o1	29.3% (not active)
c1ccc2c(c1)CN(CC1CC1)CC1(CCN(Cc3c[nH]c4cnccc34)CC1)O2	4.4% (not active)
Nc1ncc(Br)cc1-c1nc2cc(Cl)cnc2[nH]1	15.3% (not active)
COC(=O)c1ccc(F)cc1NS(=O)(=O)c1cccc(-c2cnn(Cc3ccccc3)c2)c1	26.2% (not active)
NC(CC(=O)c1ccc(Cl)cc1Cl)C(Cl)(Cl)Cl (stereo unspecified)	11.7% (not active)
Nc1ncc(-c2cn[nH]c2)cc1-c1nc2cc(Cl)cnc2[nH]1	10.2% (not active)
CCc1c(C)nc(-n2nc(C)cc2NC(=O)c2ccccc2SC)[nH]c1=O	17.4% (not active)
O=C(Nc1nnc(-c2ccc(Cl)cc2)o1)c1cccc(C(F)(F)F)c1	19.7% (not active)
CN1CCN(c2nccc3nc(-c4ccc(F)c(F)c4)[nH]c23)CC1	35% (not active)
COc1ccc(-c2nn(C(C)C)c3ncnc(N)c23)cc1OC	49.5% (not active)
Cc1ccc2nc(Cl)c(CNCc3cccs3)cc2c1	35.5% (not active)
CS(=O)(=O)N1CCC(Cn2nc(Cc3cccc4ccccc34)c3c(N)ncnc32)CC1	30.6% (not active)
CC(C)=CCC/C(C)=C\CNCCNC1C2CC3CC(C2)CC1C3 (stereo unspecified)	20.2% (not active)
CCC(C)NC(=O)c1ccc(NC(=O)C2(c3ccccc3)CCCC2)cc1 (stereo unspecified)	0.4% (not active)

SMILES	inhibition at 10 µM
COc1ccc(Nc2ccccc2NC(=O)c2ccc(O)nc2)cc1	24.1% (not active)
O=C(c1ccc(F)cc1)N(CCNc1ccccc1)c1ccccc1	24.1% (not active)
Clc1ccc(Cl)c(CO[C@H]2CCCC[C@@H]2n2ccnc2)c1	35.1% (not active)
COc1ccc(S(=O)(=O)Nc2ccc(CN3CCN(C(=O)c4cccc(C#N)c4)CC3)cc2)cc1	18.8% (not active)
O=C(NC1=NCCS1)c1sc2cc(F)ccc2c1Cl	34.6% (not active)
CCCCS(=O)(=O)Nc1ccc2cnn(C)c2c1	17.4% (not active)
Brc1c(-c2ccc3c(c2)OCO3)nc2ncccn12	39.1% (not active)
CN1CCN(S(=O)(=O)c2ccc(-c3ccc4c(Nc5ncc(Cl)cn5)ccnc4c3)cc2)CC1	43.6% (not active)
COc1cc(-c2cc(-c3ccc(S(C)(=O)=O)cc3)cnc2N)ccc1O	67.8% (not active)
OCCc1ccc(Nc2nccc(-c3nnc4ccccn34)n2)cc1	18.7% (not active)
CC(C)(C)c1cnc(NC(=O)c2ccccc2O)s1	0% (not active)
Cc1cc(NC(=O)c2ccc(Oc3ccc(Cl)cc3O)o2)no1	0% (not active)
CCC(NC(=O)c1ccccc1NC(=O)c1ccc(C)cc1)C(=O)OC (stereo unspecified)	4.8% (not active)
Nc1ccc(C(=O)Nc2ccc(-c3nc4ccccc4o3)cc2)cc1	6.1% (not active)
O=S(=O)(c1ccc(Cl)cc1)N1CCN(C(=S)NCc2ccco2)CC1	38% (not active)
COc1cccc2c(C)nc(N=C(N)N)nc12	24.2% (not active)
Cc1cc(Nc2ccc(C(F)(F)F)cc2)n2ccnc2n1	0% (not active)
CC(=O)N(CCN(C(=O)c1ccc(F)cc1)c1ccccc1)c1ccccc1	21.3% (not active)
COc1ccc(Oc2ccc([C@@H](C)N(C)c3ncc4c(N)nc(N)nc4n3)cc2)cc1	25.6% (not active)
Cc1ccc(Oc2ccc(NC(=O)CNc3ccccc3N3CCCC3=O)cc2)cc1	18.8% (not active)
